Experimental findings from patent US20060189576A1, “Substituted vitamin d analogues and their therapeutic uses” (priority 2003, published 2006) are described below.

Data set [1] has as its target T1, vitamin D receptor (Sus scrofa, UniProt A3RGC1).
T1 sequence (A3RGC1 1-427): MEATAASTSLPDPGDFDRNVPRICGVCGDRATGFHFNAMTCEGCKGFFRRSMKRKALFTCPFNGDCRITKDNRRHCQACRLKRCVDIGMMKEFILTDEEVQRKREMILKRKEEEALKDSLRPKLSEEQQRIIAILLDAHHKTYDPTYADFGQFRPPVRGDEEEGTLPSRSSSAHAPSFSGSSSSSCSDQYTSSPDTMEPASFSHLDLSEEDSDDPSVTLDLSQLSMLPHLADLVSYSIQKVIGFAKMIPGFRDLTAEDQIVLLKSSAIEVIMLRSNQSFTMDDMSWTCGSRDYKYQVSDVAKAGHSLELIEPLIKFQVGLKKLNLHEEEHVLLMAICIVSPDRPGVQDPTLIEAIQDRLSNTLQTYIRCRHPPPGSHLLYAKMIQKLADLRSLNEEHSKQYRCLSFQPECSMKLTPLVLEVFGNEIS
The note with it: percentage activity (at 50% of the dose response) in comparison with 1α,25(OH)2D3 (=100%).
Protocol: The incubation was performed at 4° C. for 20 h and phase separation was obtained by addition of dextran-coated charcoal.

In data set [2] the test system is MCF-7 cells. As to the kind of experiment: MCF-7 cell proliferation ([3H]thymidine incorporation). In kind it is cell-based. The note with it: for IN VITRO STUDIES MCF-7: antiproliferative action, percentage activity vs 1α,25(OH)2D3 (=100%); for antiproliferative effect (in words): MCF-7 cells. The procedure: To evaluate the effect of on cell proliferation, malignant MCF-7 cells were cultured in DMEM/nut. mix. […] Cultures were maintained at 37° C. in a humidified atmosphere of 5% CO2 in air. MCF-7 cells were seeded at 5×10^3 cells/well in the above described medium in 96-well microtiter plates in a final volume of 0.2 ml per well. Triplicate cultures were performed. […] Then, 1 μCi [^3H]thymidine was added to each well and cells were harvested after 4 h incubation with a Packard harvester and measured by the Packard Topcount System (Packard, Meriden, USA).
(Dividing cells build labelled thymidine or BrdU into new DNA.)

Data set [3] concerns the target T2, hDBP (Homo sapiens, UniProt P02774).
T2 sequence (P02774 17-474): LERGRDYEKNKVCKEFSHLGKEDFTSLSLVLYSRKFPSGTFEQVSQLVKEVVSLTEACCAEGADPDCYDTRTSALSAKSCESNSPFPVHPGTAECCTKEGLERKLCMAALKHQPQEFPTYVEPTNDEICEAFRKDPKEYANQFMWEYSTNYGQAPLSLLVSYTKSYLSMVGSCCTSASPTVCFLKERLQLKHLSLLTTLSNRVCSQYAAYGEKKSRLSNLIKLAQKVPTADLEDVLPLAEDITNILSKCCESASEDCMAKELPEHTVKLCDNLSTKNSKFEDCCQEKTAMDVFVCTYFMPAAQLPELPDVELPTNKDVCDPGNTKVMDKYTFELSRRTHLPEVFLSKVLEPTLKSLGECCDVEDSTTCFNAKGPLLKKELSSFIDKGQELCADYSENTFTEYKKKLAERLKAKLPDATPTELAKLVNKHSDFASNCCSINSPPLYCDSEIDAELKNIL
As to the kind of experiment: Affinity for human DBP: competition with [3H]1α,25(OH)2D3. In kind it is binding. The note with it: percentage activity (at 50% of the dose response) in comparison with 1α,25(OH)2D3 (=100%). The protocol:
Phase separation was then obtained by the addition of 0.5 ml of cold dextran-coated charcoal.

The conditions of data set [4]: for IN VIVO STUDIES Osteocalcin serum: mice, daily intraperitoneal injection 7 consecutive days, percentage activity vs 1α,25(OH)2D3 (=100%); for IN VIVO STUDIES Calcium serum / IN VIVO STUDIES Calcium urine: mouse, ip.
Protocol: Eight weeks old, male NMRI mice were obtained from the Proefdierencentrum of Leuven (Belgium) and fed a vitamin D-replete diet (0.2% calcium, 1% phosphate, 2000 U vitamin D/kg; Hope Farms, Woerden, The Netherlands). […] The control group was injected with vehicle (arachis oil). The average weight of each group of 6 mice was determined at the beginning and at the end of the experiment. The following parameters were evaluated: serum calcium, serum osteocalcin, femur calcium and urinary calcium. Serum and urinary calcium were measured by a microcolorimetric assay (Sigma, St. Louis, Mo.). Femurs were removed and femur calcium content was measured in HCl-dissolved bone ash (obtained by heating for 24 h in an oven at 100° C.), using the same technique as for serum and urinary calcium.
The subject of data set [5] is HL-60 cells. As to the kind of experiment: HL-60 cell differentiation (NBT reduction assay). As to conditions: for IN VITRO STUDIES HL 60: potency to differentiate HL 60 cells, percentage activity vs 1α,25(OH)2D3 (=100%); for prodifferentiating effect (in words): HL 60 cells. In kind it is cell-based. The protocol:
To evaluate the effect on cell differentiation HL-60 cells were seeded at 4×10^4 cells/ml in 25 cm^2 Falcon tissue chambers using RPMI 1640 medium supplemented with 20% FCS and gentamycin (50 μg/ml) in a final volume of 5 ml. Cultures were maintained at 37° C. in a humidified atmosphere of 5% CO2 in air. […] After 4 days of culture, the dishes were shaken to lose adherent cells. Cells were washed twice in RPMI, counted and assayed for differentiation markers (NBT reduction assay). Superoxide production was measured as NBT reducing activity as described previously (Ostrem V. K et al. Proc Natl Acad Sci USA 84: 2610-2614, 1987). HL-60 cells at 1×10^6/ml were mixed with an equal volume of freshly prepared solution of phorbol 12-myristate 13-acetate (200 ng/ml) and […] and incubated for 30 min at 37° C. The percentage of cells containing black formazan deposits was determined using a hemacytometer.

`CC(CCCC(C)(C)O)C1CCC2C(=CC=C3CC(O)C(C)C(O)C3)CCCC21C` (stereo not drawn) [Compound 105, 14-epi-2β-methyl-19-nor-1α,25-dihydroxyvitamin D3]: the “AFFINITY STUDIES VDR” value in data set [1] is 60%. For the same compound, the “IN VITRO STUDIES MCF-7” value in data set [2] amounted to 20%. Further, the “AFFINITY STUDIES DBP” value in data set [3] was 7%. Besides, in data set [4], the “IN VIVO STUDIES Osteocalcin serum” value was 0.8%, the “IN VIVO STUDIES Calcium serum” value worked out at 0.4% and the “IN VIVO STUDIES Calcium urine” value is 0.4%. For the same compound, the “IN VITRO STUDIES HL 60” value in data set [5] is 75%.

For the compound `CC(CCCC(C)(C)O)C1CCC2C(=CC=C3CC(O)C(C)C(O)C3)CCCC21C` (stereo not drawn) [Compound 106, 14-epi-2α-methyl-19-nor-1α,25-dihydroxyvitamin D3], the “AFFINITY STUDIES VDR” value in data set [1] is listed as 90%. Also, in data set [2], the “antiproliferative effect (in words)” value was “very potent” and the “IN VITRO STUDIES MCF-7” value is 900%. For the same compound, the “AFFINITY STUDIES DBP” value in data set [3] is recorded as 9%. Moreover, in data set [4], the “IN VIVO STUDIES Osteocalcin serum” value was found to be 13%, the “IN VIVO STUDIES Calcium serum” value worked out at 13% and the “IN VIVO STUDIES Calcium urine” value was 6%. Moreover, in data set [5], the “prodifferentiating effect (in words)” value is given as “very potent” and the “IN VITRO STUDIES HL 60” value was found to be 600%.

In the case of `CC(CC#CC(C)(C)O)C1CCC2C(=CC=C3CC(O)C(C)C(O)C3)CCCC21C` (stereo not drawn) [Compound 107, 14-epi-2β-methyl-19-nor-23-yn-1α,25-dihydroxyvitamin D3], the “AFFINITY STUDIES VDR” value in data set [1] worked out at 10%. In addition, the “IN VITRO STUDIES MCF-7” value in data set [2] was 350%. In data set [3], the “AFFINITY STUDIES DBP” value is 0%. In data set [4], the “IN VIVO STUDIES Osteocalcin serum” value is given as 0.8%, the “IN VIVO STUDIES Calcium serum” value is listed as 0.4% and the “IN VIVO STUDIES Calcium urine” value was 1.6%. Also, the “IN VITRO STUDIES HL 60” value in data set [5] is given as 400%.

`CC(CC#CC(C)(C)O)C1CCC2C(=CC=C3CC(O)C(C)C(O)C3)CCCC21C` (stereo not drawn) [Compound 118, 1,14-bis-epi-2β-methyl-19-nor-23-yn-1α,25-dihydroxyvitamin-D3]: the “AFFINITY STUDIES VDR” value in data set [1] is 6%. Also, the “AFFINITY STUDIES DBP” value in data set [3] amounted to 3%. Besides, in data set [4], the “IN VIVO STUDIES Calcium serum” value is reported as less than 0.25% and the “IN VIVO STUDIES Calcium urine” value was less than 0.25%. Besides, in data set [5], the “prodifferentiating effect (in words)” value is reported as “not active at all” and the “IN VITRO STUDIES HL 60” value came to 0%.

Consider `CC(CC#CC(C)(C)O)C1CCC2C(=CC=C3CC(O)C(C)C(O)C3)CCCC21C` (stereo not drawn) [Compound 141], for which the “AFFINITY STUDIES VDR” value in data set [1] is 9%. Also, in data set [2], the “antiproliferative effect (in words)” value is “very potent” and the “IN VITRO STUDIES MCF-7” value is on record as 4500%. In addition, in data set [5], the “prodifferentiating effect (in words)” value was “very potent” and the “IN VITRO STUDIES HL 60” value turned out to be 1500%.

For the compound `CCC1C(O)CC(=CC=C2CCCC3(C)C2CCC3C(C)CC#CC(C)(C)O)CC1O` (stereo not drawn) [Compound 142], in data set [1], the “AFFINITY STUDIES VDR” value is on record as 10%. Also, in data set [2], the “antiproliferative effect (in words)” value is reported as “very potent” and the “IN VITRO STUDIES MCF-7” value turned out to be 1500%. Further, in data set [5], the “prodifferentiating effect (in words)” value is reported as “very potent” and the “IN VITRO STUDIES HL 60” value was 400%.
